Measured values from publication PMC5656322, “BAK1 is involved in AtRALF1-induced inhibition of root cell expansion” (PLoS Genetics, 2017).
Entries after “also recorded” stand apart in the source; their conditions may differ. Where no end group is shown, it is not given here.

What was measured:
[1] = system: cytosolic Ca^2+ in Arabidopsis seedlings; details: from extra- and intracellular stores; ref [1],[11]; cited from earlier work
[2] = system: AtPRP3, AtHRGP2, CPD and DWF4 genes; assay: Expression of hormone-responsive genes (RT-PCR, qRT-PCR); format: in vivo, Arabidopsis thaliana; details: bak1-1, bak1-3, bak1-4 mutants, 1 μM, 1 h
Method: Arabidopsis plants were grown for 10 days in vertical plates and then treated in liquid medium containing 1 μM AtRALF1 for 1 h at room temperature. Control plants were incubated under identical conditions in a peptide-free medium. The total RNA was isolated from the roots of Arabidopsis plants using TRIzol reagent according to the manufacturer’s instructions (Life Technologies). The cDNA was synthesized using the ImProm-II Reverse Transcription System (Promega) and 1 μg of RNA. An aliquot of cDNA (1.5 μl) was used as the template in the PCR reaction, which was performed for 29 cycles, unless indicated otherwise, using gene-specific primers (S1 Table). The glyceraldehyde 3-phosphate dehydrogenase (GAPDH) gene was used as an internal control. All experiments were repeated at least three times with independent biological replicates. The data shown are from one representative experiment.
The qRT-PCR analysis was performed using 10-fold-diluted cDNA, Maxima SYBR Green Rox/qPCR Master Mix (Thermo Scientific) and a StepOne Real-Time PCR System (Applied Biosystems). The glyceraldehyde 3-phosphate dehydrogenase (GAPDH) gene was used as an internal control. […] The threshold cycle (CT) was determined by the instrument, and the ΔΔCT method was used to calculate the fold change in each gene. […] Three replicates were analyzed for each biological sample, and two biological samples were analyzed. […]

BAK1 = BAK1 phosphorylation assay, anti-phosphoserine; format: in vivo, Arabidopsis thaliana; details: pBAK1:BAK1-6xHA roots; 1, 2 and 10 μM, 20 min
Method: Transgenic plants pBAK1:BAK1-6xHA were grown in vertical plates for 10–15 days. The plants were treated with 0.1 μM BL, 2 μM RALF1(9–49), 1 μM, 2 μM or 10 μM AtRALF1 for 20 min. The roots were isolated, and the microsomal fractions were obtained as described above. The microsomal fractions were incubated with anti-HA beads (EZview Red Anti-HA Affinity Gel, Sigma) for 2 h at 4 °C to immunoprecipitate the BAK1 protein. The unbound materials were removed by washing 3 times. Proteins were separated by SDS/PAGE and further analyzed by protein blotting using anti-HA (Thermo Scientific), or anti-phosphothreonine (Novus Biologicals), or anti-phosphoserine (Novus Biologicals) antibodies.

[3] = system: Arabidopsis seedlings, primary root; assay: Root growth inhibition assay, vertical plates; format: in vivo, Arabidopsis thaliana
Method: (A) and (B) Arabidopsis seedlings (2 days old) were treated with 10 μM AtRALF1 or water (H20) for 2 days. The values are the mean ± SD of at least 25 seedlings. Triple asterisks indicate P < 0.01 (Student’s t test); ns, not significant. (C) Four-day-old seedlings were transferred to media containing different concentrations of AtRALF1, and the primary root length was measured after 8 days of treatment. The data represent the mean value ± SD of 30 seedlings. […] Representative Arabidopsis seedlings after 8 days of treatment with AtRALF1 are shown below. Seedlings were arranged on plates after the treatment for imaging. Scale bars, 1 cm. (D) Two-day-old seedlings were treated with 10 μM AtRALF1 or water for 2 days, and root cell length was measured after 2 days of treatment. Cells from the root endodermis in the differentiation zone were measured. The values are the mean ± SD of approximately 150 cells. Triple asterisks indicate P < 0.01 (Student’s t test); ns, not significant.
Aliquots of 1 ml of medium containing seeds were distributed into 24-well plates. The peptides (10 μM) were added after 2 days, and the root length was measured 2 days after treatment. To maximize root growth, the seeds were germinated in vertical plates. […] The root length was measured 8 days after treatment unless stated otherwise. Control plants were grown under identical conditions in a peptide-free medium. Quantitative data were obtained as previously described. […] The data from one representative experiment are shown. For cell length measurements, AtRALF1 peptide (10 μM) was added after 2 days of germination, and the cell length was measured after 2 days of treatment. The cell wall was stained with a 1 mg ml^-1 propidium iodide solution (Sigma) in the dark for 15 min and washed twice with water. Cells of the endodermis of the root differentiation zone were imaged and measured using confocal microscopy (Olympus FV1000). Approximately 30 plants from each genetic background and at least 5 cells per root were measured. The wavelengths for excitation and emission were 555 and 655 nm, respectively. Image processing was completed using the Olympus FluoView software.
Supplementary file pgen.1007053.s004.pdf: S4 Fig Analyses of root growth of Arabidopsis seedlings treated with AtRALF1 peptide for 8 days and evaluated daily. Four-day-old seedlings were transferred to media containing different concentrations of AtRALF1, and the primary root length was measured daily during the 8 days of treatment. Genotypes Wt, bak1-1, bak1-3 and bak1-4 are indicated on top of each series of graphics. The seedlings were treated with 0, 0.5, 1, 5 and 10 μM AtRALF1. The data represent the mean values ± SD of 30 seedlings. Double and triple asterisks indicate P < 0.05 and P <0.01, respectively (Student’s t test); ns, not significant. (PDF) Click here for additional data file.
Four-day-old seedlings were transferred to medium containing 10 μM AtRALF1, and the primary root length was measured after 8 days of treatment. The data represent the mean value ± SD of 20 seedlings. Triple asterisks indicate P < 0.01 (Student’s t test); ns, not significant. Representative Arabidopsis seedlings after 8 days of treatment with AtRALF1 are shown. The seedlings were arranged on plates after the treatment for imaging. Scale bars, 1 cm. (PDF) Click here for additional data file.
Four-day-old seedlings were transferred to medium containing 0.1 μM BAP, and the primary root length was measured after 8 days of treatment. The data represent the mean value ± SD of 10 seedlings.

AtRALF1: root-specific RALF isoform in Arabidopsis; recombinant peptide hormone produced in E. coli (ATTKYISYQSLKRNSVPCSRRGASYYNCQNGAQANPYSRGCSKIARCRS; ends and bridges not checked; cysteine pairing not given here)
cytoplasmic Ca^2+ [1]: rapid increase in cytoplasmic Ca^2+
up-regulation of AtRALF1-inducible genes [2]: None of the AtRALF1-inducible genes were up-regulated
BAK1 serine phosphorylation (BAK1): no changes were detected
sensitivity of root growth ([3]; 8 days of treatment, bak1-1, bak1-3, bak1-4 mutants): insensitive to the AtRALF1 peptide
daily root growth ([3]; bak1-mutant lines, 8-day treatment, 0-10 μM): No differences were observed in the daily root growth
highest concentration to which bak1 mutants are insensitive ([3]; bak1 mutants, 8 days): ≥ 10 µM
sensitivity of root growth ([3]; bak1 mutants, side by side with fer4, 8 days): insensitive to any tested concentrations of the peptide
primary root growth inhibition ([3]; bak7 mutant, 10 μM, 8 days): inhibited primary root growth
sensitivity of root growth ([3]; fer4 mutant, side by side with bak1 mutants, 8 days): conditional insensitivity to AtRALF1 treatment; also recorded: insensitive to AtRALF1 peptide in low concentrations only
dose with significant differences in root growth by the third day of treatment ([3]; wild-type, 0.5-10 μM tested, P < 0.05 / 0.01): ≥ 1 µM
